In brackets after ≈: the same amount, converted by molar mass. Activity calls are given as the source filed them. No cut-off for these calls is given here.
What was measured:
Enterovirus A71 [1] = experiment: Antiviral activity against Human enterovirus 71 infected in mouse assessed as increase in survival rate; type: functional
Mus musculus = experiment: Toxicity in Human enterovirus 71 MP10 infected ICR mouse at 0.4 to 1 mg/kg, ip qd for 7 days measured up to 14 days; type: organism-based; set-up: dose 0.4-1 mg/kg, route intraperitoneal; conditions: in vivo
Enterovirus A71 [2] = experiment: Antiviral activity against C4 type Human enterovirus 71 MP10 infected in ICR mouse assessed as increase in survival rate at 1 mg/kg, ip administered 2 hrs post infection qd for 7 days measured up to 14 days; type: functional; conditions: route intraperitoneal
Enterovirus A71 [3] = experiment: Antiviral activity against C4 type Human enterovirus 71 MP10 infected in ICR mouse assessed as delay in appearance of infection symptoms at 0.4 mg/kg, ip administered 2 hrs post infection qd for 7 days measured up to 14 days; type: functional, organism-based; set-up: dose 0.4 mg/kg
Enterovirus A71 [4] = experiment: Antiviral activity against C4 type Human enterovirus 71 FY0805 infected in human RD cells assessed as inhibition of infectious virus yeild at 20 ug/ml treated 2 hrs post infection measured after 32 to 72 hrs by TCID50 assay relative to control; type: functional, organism-based
[5] = Selectivity index, ratio of CC50 for human RD cells to IC50 for C4 type Human enterovirus 71 FY0805; type: functional
Enterovirus A71 [6] = experiment: Antiviral activity against C4 type Human enterovirus 71 MP10 infected in ICR mouse assessed as disappearance of ruffled hair at 0.4 mg/kg, ip administered 2 hrs post infection qd for 7 days measured up to 14 days; type: functional, organism-based; set-up: dose 0.4 mg/kg
Enterovirus A71 [7] = experiment: Antiviral activity against C4 type Human enterovirus 71 MP10 infected in ICR mouse assessed as delay in paralysis at 0.4 mg/kg, ip administered 2 hrs post infection qd for 7 days measured up to 14 days; type: functional, organism-based; set-up: dose 0.4 mg/kg
Enterovirus A71 [8] = experiment: Antiviral activity against C4 type Human enterovirus 71 MP10 infected in ICR mouse assessed as recovery at 0.4 mg/kg, ip administered 2 hrs post infection qd for 7 days measured up to 14 days; type: functional, organism-based; set-up: dose 0.4 mg/kg
Enterovirus A71 [9] = experiment: Antiviral activity against C4 type Human enterovirus 71 FY0805 infected in human RD cells assessed as inhibition of […] at 20 ug/ml treated 2 hrs post infection measured after 32 to 72 hrs by qRT-PCR analysis relative to control; type: functional, organism-based
Enterovirus A71 [10] = experiment: Antiviral activity against C4 type Human enterovirus 71 MP10 infected in ICR mouse assessed as inhibition of viral replication in muscle at 0.4 mg/kg, ip administered 2 hrs post infection qd for 7 days measured up to 7 days by qRT-PCR analysis; type: functional, organism-based; set-up: dose 0.4 mg/kg; conditions: Muscle tissue
[11] = Cytotoxicity against human RD cells; type: cell-based
Enterovirus A71 [12] = experiment: Antiviral activity against C4 type Human enterovirus 71 FY0805 infected in human RD cells assessed as inhibition of viral replication by plaque reduction assay; type: functional, organism-based; conditions: Enterovirus A
Enterovirus A71 [13] = experiment: Antiviral activity against C4 type Human enterovirus 71 MP10 infected in ICR mouse assessed as increase in survival rate at 0.4 mg/kg, ip administered 2 hrs post infection qd for 7 days measured up to 14 days; type: functional; conditions: route intraperitoneal
Enterovirus A71 [14] = experiment: Antiviral activity against C4 type Human enterovirus 71 MP10 infected in ICR mouse assessed as increase in survival rate at 50 mg/kg, ip administered 2 hrs post infection qd for 7 days measured up to 14 days; type: functional; conditions: route intraperitoneal

Compound	Activity (Enterovirus A71 [1])	Activity (Mus musculus)	Activity (Enterovirus A71 [2])	Activity (Enterovirus A71 [3])	inhibition (Enterovirus A71 [4])	Ratio CC50/IC50 [5]	Activity (Enterovirus A71 [6])	Activity (Enterovirus A71 [7])	Activity (Enterovirus A71 [8])	inhibition (Enterovirus A71 [9])	inhibition (Enterovirus A71 [10])	CC50 [11]	IC50 (Enterovirus A71 [12])	Activity (Enterovirus A71 [13])	Activity (Enterovirus A71 [14])
O[C@H]1[C@H]2c3cc4c(cc3CN3CCC(=C[C@@H]1O)[C@H]23)OCO4 [LYCORINE]	18%														
O=C1O[C@H]2[C@@H]3OC(=O)c4cc(O)c(O)c(O)c4-c4c(cc(O)c(O)c4O)C(=O)OC[C@H]2O[C@@H](OC(=O)c2cc(O)c(O)c(O)c2)[C@@H]3OC(=O)c2cc(O)c(O)c3c2[C@@H]2C1=CC(=O)[C@](O)(O3)C2(O)O [GERANIIN]		Non-toxic	40%	Active	Active	20	Active	Active	Active	Active	Active	200 µg/mL (≈ 210 µM)	10 µg/mL (≈ 10.5 µM)	35%	
NC(=O)c1ncn([C@@H]2O[C@H](CO)[C@@H](O)[C@H]2O)n1 [RIBAVIRIN]													60 µg/mL (≈ 246 µM)		5%

From ChEMBL document CHEMBL1955845, “Antiviral effect of geraniin on human enterovirus 71 in vitro and in vivo” (Bioorg Med Chem Lett, 2012)
